Test results published in PubChem BioAssay (NCI).
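Cultured in 96-well plates, cells were exposed to test compound for 48 hours across five concentrations. The concentration for 50% growth inhibition is given as GI50. TGI marks complete inhibition of growth.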

Columns and labels:
Experiment in all cases: NCI-60 cell line screen, 48 h
ACHN renal = tested on: ACHN renal
HOP-92 NSCLC = tested on: HOP-92 NSCLC
SF-295 CNS = tested on: SF-295 CNS
U251 CNS = tested on: U251 CNS
EKVX NSCLC = tested on: EKVX NSCLC
A498 renal = tested on: A498 renal
NCI-H460 lung = tested on: NCI-H460 lung
A549 NSCLC = tested on: A549 NSCLC
SK-OV-3 ovarian = tested on: SK-OV-3 ovarian
MCF7 breast = tested on: MCF7 breast

| SMILES | TGI (ACHN renal) [µM] | TGI (HOP-92 NSCLC) [µM] | TGI (SF-295 CNS) [µM] | TGI (U251 CNS) [µM] | TGI (EKVX NSCLC) [µM] | TGI (A498 renal) [µM] | TGI (NCI-H460 lung) [µM] | TGI (A549 NSCLC) [µM] | TGI (SK-OV-3 ovarian) [µM] | TGI (MCF7 breast) [µM] | GI50 (ACHN renal) [µM] | GI50 (SF-295 CNS) [µM] | GI50 (EKVX NSCLC) [µM] | GI50 (NCI-H460 lung) [µM] | GI50 (SK-OV-3 ovarian) [µM] | GI50 (HOP-92 NSCLC) [µM] | GI50 (MCF7 breast) [µM] | GI50 (U251 CNS) [µM] | GI50 (A549 NSCLC) [µM] | GI50 (A498 renal) [µM] |
| --- | --- | --- | --- | --- | --- | --- | --- | --- | --- | --- | --- | --- | --- | --- | --- | --- | --- | --- | --- | --- |
| O=C(CC1C(=O)Nc2ccccc2S1=O)Nc1cc(Cl)ccc1Cl (centres undefined) | > 100 | > 100 | > 100 | > 100 | > 100 | > 100 | > 100 | > 100 | – | – | – | – | – | – | – | – | – | – | – | – |
| CN(C)C(=S)/N=c1\sn(C)/c(=N\C(=S)N(C)C)n1C | > 100 | > 100 | > 100 | > 100 | > 100 | > 100 | > 100 | > 100 | > 100 | – | – | – | – | – | – | – | – | – | – | – |
| c1ccc2c(OCCSCCCCCCCCCCSCCOc3cccc4ccccc34)cccc2c1 | > 100 | > 100 | > 100 | > 100 | > 100 | > 100 | > 100 | > 100 | > 100 | – | – | – | – | – | – | – | – | – | – | – |
| CCC(C)(C)c1ccc(OCCCCNC(=O)c2ccc3ccccc3c2O)c(C(C)(C)CC)c1 | > 100 | – | > 100 | > 100 | 87.9 | > 100 | > 100 | > 100 | > 100 | > 100 | – | – | – | – | – | – | – | – | – | – |
| CSc1nc(SC)c2c(C#N)[nH]nc2n1 | > 100 | > 100 | > 100 | > 100 | > 100 | > 100 | > 100 | > 100 | > 100 | – | – | – | – | – | – | – | – | – | – | – |
| CC12CCC(=O)C[C@H]1CCC(OC=O)C2Br (some centres undefined) | > 100 | > 100 | > 100 | > 100 | – | > 100 | > 100 | > 100 | > 100 | – | – | – | – | – | – | – | – | – | – | – |
| COc1ccc(OCC(=O)O)c2c1CCCC2=O | > 100 | > 100 | > 100 | > 100 | > 100 | > 100 | > 100 | > 100 | > 100 | – | – | – | – | – | – | – | – | – | – | – |
| COc1cnc2c(c1)C(=O)c1c-2n(CCCNC2=NCCS2)c(=O)c2cc([N+](=O)[O-])ccc12 | 1.15 | – | 0.265 | – | 2.82 | – | 1.24 | – | – | – | < 0.01 | 0.0132 | 1.01 | < 0.01 | – | – | – | – | – | – |
| On1c(-c2ccccc2)c(-c2ccccc2N2CCCC2)c2ccccc21 | > 100 | > 100 | > 100 | > 100 | > 100 | > 100 | > 100 | > 100 | > 100 | – | – | – | – | – | – | – | – | – | – | – |
| O=C(OC1CCC(=C2SCCCS2)[C@H]1C1SCCCS1)c1ccccc1 (some centres undefined) | > 100 | > 100 | > 100 | > 100 | > 100 | > 100 | > 100 | > 100 | > 100 | – | – | – | – | – | – | – | – | – | – | – |
| Cc1ccc2nc(/C(=C/c3ccc(/C=C(\NC(=O)c4ccccc4)c4nc5ccc(C)cc5[nH]4)c(C)c3)NC(=O)c3ccccc3)[nH]c2c1 | > 100 | 52 | – | 60.2 | > 100 | 53.6 | 35.8 | 65.9 | > 100 | – | – | – | – | – | – | – | – | – | – | – |
| O=C(/C(=C/c1ccc(Cl)cc1)c1ccccc1)c1ccccc1 | 39.5 | 41.7 | 39.7 | 33.9 | 72.4 | 44.9 | 34.8 | – | 71.7 | – | – | – | – | – | – | – | – | – | – | – |
| CN1C(=O)c2ccccc2NC(=O)C12O[C@@H]2c1ccccc1 (some centres undefined) | > 100 | > 100 | > 100 | > 100 | > 100 | > 100 | > 100 | > 100 | – | > 100 | – | – | – | – | – | – | – | – | – | – |
| CC1(C)COC(c2cccc3c2C(=O)c2cccc(Cl)c2-3)=N1 | > 100 | – | > 100 | > 100 | > 100 | > 100 | > 100 | > 100 | > 100 | – | – | – | – | – | – | – | – | – | – | – |
| CCOC(=O)c1ccc(/C(C)=N/NC(N)=S)cc1 | > 100 | > 100 | > 100 | > 100 | > 100 | > 100 | > 100 | > 100 | > 100 | – | – | – | – | – | – | – | – | – | – | – |
| O=C(NC[C@H](O)CN1CCc2ccccc2C1)c1cc(NC2COC2)ncn1 | > 100 | > 100 | > 100 | > 100 | > 100 | – | 21.1 | > 100 | > 100 | > 100 | 25.1 | 14.7 | 24.8 | 3.98 | 77.2 | 18.1 | 3.93 | 13 | 39.5 | – |
| C/C(CC(=O)Nc1ccc(C)c(C)c1)=N\N(c1ccccc1)c1ccccc1 | > 100 | > 100 | > 100 | 30.5 | > 100 | > 100 | > 100 | > 100 | > 100 | – | – | – | – | – | – | – | – | – | – | – |
| CN(C)C1CCN(C(=O)c2ccc(NC(=O)Nc3ccc(-c4nc(N5CCOCC5)c5cccn5n4)cc3)cc2)CC1 | 13 | 0.102 | 0.512 | 14.4 | 3.46 | – | 13.6 | 12.6 | 0.252 | 1.51 | 1.05 | 0.0719 | 0.0702 | 0.0587 | 0.0377 | < 0.015 | – | 0.0599 | 0.0649 | – |
| COC(=O)C1CCCC2(C1)OCCO2 (centres undefined) | > 100 | > 100 | > 100 | > 100 | > 100 | > 100 | > 100 | > 100 | > 100 | – | – | – | – | – | – | – | – | – | – | – |
| CC(C)(/C=C(\C#N)C(=O)N1CCC[C@@H](n2nc(-c3ccc(Oc4ccccc4)cc3F)c3c(N)ncnc32)C1)N1CCN(C2COC2)CC1 | 17.1 | 11.1 | 19.6 | 25.8 | 19.2 | 6.25 | 20.8 | 25.1 | – | 12.8 | 4.53 | 6.39 | 6.03 | 6.3 | – | 2.8 | 2.57 | 7.35 | 6.57 | 1.78 |
| CC(C)(C)c1cc(C(P(=O)(O)O)P(=O)(O)O)cc(C(C)(C)C)c1O | > 100 | > 100 | > 100 | > 100 | > 100 | > 100 | > 100 | > 100 | > 100 | – | – | – | – | – | – | – | – | – | – | – |
